Measurements: the RepoRT retention time repository (doi:10.1007/s00216-021-03828-0)

Columns and labels:
Details in all cases: stereoisomer not certain
[1] = RP, Merck Supelco Ascentis Express C18, 100 × 2.1 mm, 2 µm, 40 °C, 0.2 mL/min, estimated dead time 1.1 min; A: water + 0.1% formic acid, pH 3; B: acetonitrile + 0.1% formic acid, pH 3; gradient (min/%B) 0/5 2/5 17/99.9 20/99.9
[2] = RP, Merck Supelco Ascentis Express C18, 100 × 2.1 mm, 2 µm, 39 °C, 0.3 mL/min, estimated dead time 0.73 min; A: water + 0.1% formic acid, pH 3; B: acetonitrile + 0.1% formic acid, pH 3; gradient (min/%B) 0/5 2/5 17/99.9 20/99.9
[3] = RP, Merck Supelco Ascentis Express C18, 100 × 2.1 mm, 2 µm, 40 °C, 0.2 mL/min, estimated dead time 1.1 min; A: water + 0.1% formic acid, pH 3; B: acetonitrile + 0.1% formic acid, pH 3; gradient (min/%B) 0/5 2/5 17/99.9 20/99.9; remark: listed apart in the source
[4] = RP, Merck Supelco Ascentis Express C18, 100 × 2.1 mm, 2 µm, 40 °C, 0.35 mL/min, estimated dead time 0.63 min; A: water + 0.1% formic acid, pH 3; B: acetonitrile + 0.1% formic acid, pH 3; gradient (min/%B) 0/5 2/5 17/99.9 20/99.9
[5] = RP, Merck Supelco Ascentis Express C18, 100 × 2.1 mm, 2 µm, 40 °C, 0.4 mL/min, estimated dead time 0.55 min; A: water + 0.1% formic acid, pH 3; B: acetonitrile + 0.1% formic acid, pH 3; gradient (min/%B) 0/5 2/5 17/99.9 20/99.9
[6] = RP, Merck Supelco Ascentis Express C18, 100 × 2.1 mm, 2 µm, 40 °C, 0.25 mL/min, estimated dead time 0.88 min; A: water + 0.1% formic acid, pH 3; B: acetonitrile + 0.1% formic acid, pH 3; gradient (min/%B) 0/5 2/5 17/99.9 20/99.9
[7] = RP, Merck Supelco Ascentis Express C18, 100 × 2.1 mm, 2 µm, 40 °C, 0.4 mL/min, estimated dead time 0.55 min; A: water + 0.1% formic acid, pH 3; B: acetonitrile + 0.1% formic acid, pH 3; gradient (min/%B) 0/5 2/5 17/99.9 20/99.9; remark: listed apart in the source

Compound	LC retention time [1] [min]	LC retention time [2] [min]	LC retention time [3] [min]	LC retention time [4] [min]	LC retention time [5] [min]	LC retention time [6] [min]	LC retention time [7] [min]
O=c1[nH]c(=O)c2ncn(C3OC(CO)C(O)C3O)c2[nH]1 (centres undefined) [XANTHOSINE]	1.65	1.05	1.62	0.923	0.81	1.29	0.81
CSCCC(O)C(=O)O (centres undefined) [2-HYDROXY-4-(METHYLTHIO)BUTANOATE]	3.75	2.49	3.75	2.15	1.86	3	1.9
Cc1cn(C2CC(O)C(CO)O2)c(=O)[nH]c1=O (centres undefined) [THYMIDINE]	2.09	1.36	2.06	1.19	1.04	1.64	1.05
O=C(O)c1ccccc1[O-] [SALICYLATE]	5.31	4.28	5.3	3.9	3.59	4.72	3.62
CSc1ncnc2nc[nH]c12 [THIOPURINE S-METHYLETHER]	4.85	3.94	4.85	3.61	3.33	4.33	3.37
NC(Cc1cc(I)c(Oc2cc(I)c(O)c(I)c2)c(I)c1)C(=O)O (centres undefined) [THYROXINE]	8.87	8.11	8.88	7.87	7.65	8.44	7.69
COc1cc(C=CC(=O)O)ccc1O [FERULATE]	6.32	5.39	6.33	5.07	4.81	5.78	4.85
CC12CCC(=O)C=C1CCC1C2CCC2(C)C1CCC2(O)C(=O)CO (centres undefined) [CORTEXOLONE]	9.16	8.25	9.2	7.95	7.69	8.66	7.73
CC(=O)Oc1cccc(O)c1 [RESORCINOL MONOACETATE]	7	5.94	7.01	5.5	5.14	6.34	5.17
CCC(C)C(N)C(=O)O (centres undefined) [ISOLEUCINE]	1.45	0.93	1.43	0.793	0.717	1.14	0.697
O=C(O)c1cc(O)ccc1O [2,5-DIHYDROXYBENZOATE]	4.65	3.5	4.65	3.04	2.63	4.02	2.66
CCCCCCCCCCCCCC(=O)OCC(O)CO (centres undefined) [GLYCEROL-MYRISTATE]	15.3	14	15.4	13.6	13.2	14.6	13.3
O=C(O)c1ccc2ccccc2c1O [1-HYDROXY-2-NAPHTHOATE]	10.4	9.28	10.4	8.9	8.56	9.77	8.61
CC(CCC(=O)NCC(=O)O)C1CCC2C3C(O)CC4CC(O)CCC4(C)C3CCC12C (centres undefined) [GLYCOCHENODEOXYCHOLATE]	10.4	9.57	10.5	9.28	9.05	9.94	9.09
O=C(O)CNC(=O)c1ccccc1 [HIPPURATE]	5.11	4.09	5.12	3.72	3.42	4.54	3.45
Cc1cc2nc3[nH]c(=O)[nH]c(=O)c3nc2cc1C [LUMICHROME]	6.91	6.03	6.93	5.74	5.5	6.4	5.54
N[C@@H](Cc1cc(I)c(O)c(I)c1)C(=O)O [3,5-DIIODO-L-TYROSINE]	5.37	4.54	5.38	4.26	4.03	4.89	4.07
NC(Cc1ccccc1)C(=O)O (centres undefined) [PHENYLALANINE]	2.26	1.46	2.23	1.26	1.1	1.77	1.11
O=c1ccn(C2CC(O)C(CO)O2)c(=O)[nH]1 (centres undefined) [DEOXYURIDINE]	1.42	0.953	1.41	0.81	0.68	1.12	0.697
O=C(O)c1ccc(O)c(O)c1 [3,4-DIHYDROXYBENZOATE]	3.06	2.06	3.05	1.76	1.52	2.44	1.53
O=C(O)CCCCCCCC(=O)O [AZELATE]	6.89	6.09	6.98	5.73	5.49	6.39	5.57
O=C(O)c1ccc(=O)[nH]c1 [6-HYDROXYNICOTINATE]	1.59	1.06	1.59	0.887	0.773	1.26	0.787
